Assay results as given in patent publication US20230226087A1, “PHOSPHOLIPIDS AND PHOSPHOLIPID METABOLITES FOR TREATING VIRAL AND BACTERIAL PNEUMONIA AND SEPSIS” (ANDREAS HETTICH GMBH & CO. KG, priority 2020, published 2023).
Read-outs that look alike come from different tables or passages of the source.

Key:
plasma LysoPC level [1] = assay: Change of plasma LysoPC level after oral ingestion in a fasted healthy subject (HPTLC assay of LysoPC); details: 600 mg alpha-GPC
Method: (§1) LysoPC from plasma, serum or blood was extracted in one step by a newly developed method and subsequently assayed by using HPTLC (high performance thin layer chromatography).
(§2) The extraction of 50 μl of sample each was effected using salt-assisted extraction. For this purpose, a ceramic sphere (3.4 mm, ceramic) was charged in a 2 ml twist-top vial, and then 50 μl of distilled water, 50 μl of sample, 192 μl of concentrated ammonium acetate solution, and 300 μl of acetonitrile/1-pentanol (2.5:1 v/v) were added. After closing, the vial is intensively shaken centrifugally using dual centrifugation (ZentriMix 380 R, from the company Hettich, Tuttlingen, Germany) at 2000 rpm and 20° C. for 4 min. Subsequently, the vials are centrifuged at 16,000 rpm for 10 min. From the upper phase, 200 μl is removed, transferred to a crimp-top vial with a microinsert, crimped, and sent to HPTLC.
(§3) For the determination of the LysoPC concentrations using HPTLC, five LysoPC standards (16, 40, 80, 120 and 160 μM LysoPC in acetonitrile/1-pentanol (2.5:1 v/v.) and up to 12 sample extracts were applied to a 20×10 cm silica gel plate using the automated applying device ATS4 (CAMAG, Switzerland). The volume applied is 6 μl each.
(§4) After the application and after a dwell time of five minutes to ensure uniform evaporation of the solvent, the plate is placed into a preconditioned DC chamber filled with 35 ml of chloroform/methanol/water (65:35:4 v/v) and 200 μl of 25% ammonia solution for 20 min. Within this period, a travelling distance of about 9 cm is reached. […] After cooling to room temperature again, the optical density of the LysoPC bands (Rf about 0.1) is determined using the evaluation unit (TLC Visualizer 2, CAMAG, Switzerland), and the LysoPC concentrations were evaluated by comparing with the calibration substances using the HPTLC software “visionCATS” (Camag, Switzerland). If the LysoPC value is determined, not directly from plasma, but from whole blood, then the value needs to be corrected by the respective hematocrit value and by a factor of 1.3. […]

[2] = Assaying the total amount of LysoPC in the body (distribution between plasma and deeper compartments); assay type: in vivo, human
Method: To the therapeutic approach for the treatment of pneumonias of different origins and of sepsis as described herein, the determination of the total amount of LysoPC in the body is essential. The latter could be determined by determining the LysoPC concentration in the plasma, which is in equilibrium with the deeper compartments. To this end, one subject was administered, on the one hand, a high amount of phospholipid from egg (Example 1 (Determination of Plasma LysoPC) and Example 2). The plasma volume was calculated, the increase of the LysoPC concentration was determined, and the plasma LysoPC level accompanying this concentration change was calculated. This LysoPC amount and its ratio to the amount taken up yields the distribution of the LysoPC equivalent taken up between the plasma and the deeper compartments, from which the total LysoPC amount in the body can be calculated. It was considered that 100% of the phospholipid is taken up as LysoPC.
In another experiment, a subject was administered a high amount (25 g) of pure triglyceride (Example 3). The plasma volume was calculated. The lowering of the LysoPC concentration because of the consumption of LysoPC for producing PC for the biosynthesis of chylomicrons was determined (One chylomicron contains about 5-10% PC as a ratio to the amount of triglyceride). The amount of plasma LysoPC involved in this concentration change was calculated. This amount of LysoPC and its ratio to the amount taken up yields the distribution of the LysoPC equivalent taken up between the plasma and the deeper compartments, from which the total LysoPC amount in the body can be calculated. It was considered that 100% of the plasma LysoPC was converted to PC.
From the results of Examples 2 and 3, the amount of LysoPC in deeper compartments could be estimated at about 95% of the total body LysoPCs, i.e., about 5% is present in the blood plasma.
On this basis, the amount of total body LysoPCs can be estimated to a minimum of 10 g. […]

[3] = squirrel monkeys; cited from earlier work
[4] = mice; cited from earlier work
albumin = albumin (Homo sapiens, UniProt P02768); details: cited from earlier work
E. coli = details: mice, cited from earlier work
[5] = test system: septic shock (Gram positive and Gram negative); details: rat, cited from earlier work
sepsis models = details: mice, 25 mg/kg LysoPC i.p., cited from earlier work
[6] = test system: production of antigen-specific antibodies; details: mice, administered simultaneously with various antigens; cited from earlier work
plasma LysoPC level [7] = details: human, in vivo
Method: as §1, §2, §3, §4

Chain of albumin (P02768 25-609): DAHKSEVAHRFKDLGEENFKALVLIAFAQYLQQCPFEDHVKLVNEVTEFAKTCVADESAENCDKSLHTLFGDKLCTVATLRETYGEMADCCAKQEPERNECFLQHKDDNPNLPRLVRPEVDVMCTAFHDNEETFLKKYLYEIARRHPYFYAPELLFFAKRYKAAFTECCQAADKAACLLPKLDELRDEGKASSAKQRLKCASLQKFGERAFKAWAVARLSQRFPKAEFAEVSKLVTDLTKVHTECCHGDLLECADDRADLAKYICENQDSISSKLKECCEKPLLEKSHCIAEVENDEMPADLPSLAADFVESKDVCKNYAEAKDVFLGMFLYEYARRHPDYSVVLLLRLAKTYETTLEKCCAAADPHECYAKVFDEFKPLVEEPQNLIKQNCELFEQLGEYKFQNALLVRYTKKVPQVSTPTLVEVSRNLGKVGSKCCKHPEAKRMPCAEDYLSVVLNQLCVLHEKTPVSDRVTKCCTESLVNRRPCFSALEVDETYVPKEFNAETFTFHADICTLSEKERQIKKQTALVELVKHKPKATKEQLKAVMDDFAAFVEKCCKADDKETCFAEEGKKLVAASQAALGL

In the case of alpha-glycerophosphocholine [alpha-GPC], the “increase of plasma LysoPC level” value (plasma LysoPC level [1]; rise within 30 min after the first hour, then constant until end (2 hours)) is reported as “about 20%” and the “change of plasma LysoPC level in the first hour” value (plasma LysoPC level [1]; starting level about 190 μM) is reported as “did not change”.
For lyso-phosphatidylcholine [LysoPC], the “amount of total body LysoPCs” value ([2]; for mean 300 μM and plasma volume about 3.5 liters (about 500 mg in plasma)) was “about 10 g”, the “proportion of total body LysoPC located in the blood plasma” value ([2]; from Examples 2 and 3) was 4-5% and the “daily conversion rate of LysoPC” value ([2]; healthy subjects, based on estimated total body half life of 2.5 hours) was “about 50 g”. For the same substance, the LysoPC half life [3] was 1.3 h, the LysoPC half life [4] was “about 4 hours” and the “number of binding sites of albumin for LysoPC” value (albumin) was 3-4. The “share of plasma LysoPCs bound by albumin” value (albumin; plasma) was “about 80%”, the survival (E. coli; E. coli sepsis, 20 mg/kg LysoPC s.c., from about 20%) was 90% and the “duration of increased LysoPC level after a single injection” value (E. coli; single injection) was “about 4 hours”. For the same substance, the IL1-β levels ([5]; accompanying the protecting effects) was “reduction of the IL1-β levels”, the “effect of higher doses” value ([5]; higher doses of up to 100 mg/kg) was “incapable or even harmful” and the “effect on damage to the organs and dysfunctions” value ([5]; up to 10 mg/kg, i.v.) was “reduce the damage to the organs and dysfunctions significantly”. The bacterial clearance (sepsis models) was “improved”, the “survival, first sepsis model” value (sepsis models; from 0%) was 69% and the “survival, second sepsis model” value (sepsis models; from 0%) was 40%. For the same substance, the “effect in the production of antigen-specific antibodies (adjuvant)” value [6] was “identical to that of alum”.
In the case of triglycerides, the “share of the consumed LysoPC amount (1700 mg) taken from the plasma” value (plasma LysoPC level [7]) is reported as 3.9%.
